Source: ChEMBL document CHEMBL3421624, “Design and Synthesis of Antitumor Heck-Coupled Sclareol Analogues: Modulation of BH3 Family Members by SS-12 in Autophagy and Apoptotic Cell Death” (J Med Chem, 2015)
Calls of active or inactive are those of the source. No cut-off for these calls is given here.

Columns and labels:
CCRF S-180 [1] = test: Antitumor activity against mouse S180 solid tumor cells implanted in Swiss albino mouse assessed as tumor growth inhibition at 22 mg/kg, ip measured on day 13; format: functional; conditions: CCRF S-180, ip, 312 h, route intraperitoneal, read-out: TGI
Mus musculus [2] = test: Toxicity in mouse S180 solid tumor cells implanted Swiss albino mouse assessed as mouse mortality at 22 mg/kg, ip measured on day 13; format: organism-based; parameters: dose 22 mg/kg, route intraperitoneal; conditions: in vivo
CCRF S-180 [3] = test: Antitumor activity against mouse S180 ascites cells implanted in Swiss albino mouse assessed as tumor growth inhibition at 22 mg/kg, ip measured on day 12; format: functional; conditions: CCRF S-180, ip, 288 h, route intraperitoneal, read-out: TGI
Mus musculus [4] = test: Toxicity in mouse S180 ascites cells implanted Swiss albino mouse assessed as mouse mortality at 22 mg/kg, ip measured on day 13; format: organism-based; parameters: dose 22 mg/kg, route intraperitoneal; conditions: in vivo
PC-3 [5] = test: Induction of autophagy in human PC3 cells assessed as increase LC3 intracellular localization at 100 nM to 300 nM after 24 hrs by immunocytochemistry; format: functional, cell-based
PC-3 [6] = test: Induction of autophagy in human PC3 cells assessed as increase in conversion of LC3-I to LC3-II at 0.1 to 0.3 uM after 24 hrs by Western blotting method; format: functional, cell-based
PC-3 [7] = test: Induction of autophagy in human PC3 cells assessed as reduction in SQSTM1/P62 protein levels at 0.1 to 0.3 uM after 24 hrs by Western blotting method; format: functional, cell-based
PC-3 [8] = test: Induction of autophagy in human PC3 cells assessed as increase in Beclin-1 protein levels at 0.1 to 0.3 uM after 24 hrs by Western blotting method; format: functional, cell-based
PC-3 [9] = test: Inhibition of Akt S473 phosphorylation in human PC3 cells at 0.1 to 0.3 uM after 24 hrs by Western blotting method; format: cell-based
PC-3 [10] = test: Inhibition of Akt in human PC3 cells assessed as reduction in mTOR S2448 phosphorylation at 0.1 to 0.3 uM after 24 hrs by Western blotting method; format: cell-based
[11] = Effect on total Akt protein levels in human PC3 cells at 0.1 to 0.3 uM after 24 hrs by Western blotting method; format: ADME, cell-based; conditions: pc-3, 24 h
[12] = Effect on total mTOR protein levels in human PC3 cells at 0.1 to 0.3 uM after 24 hrs by Western blotting method; format: ADME, cell-based; conditions: pc-3, 24 h
[13] = Reduction in Bcl-2 protein expression in human PC3 cells at 0.1 to 0.3 uM after 24 hrs by Western blotting method; format: functional, cell-based; conditions: PC-3
[14] = Cytotoxicity against human PC3 cells after 48 hrs by MTT assay; format: functional, cell-based; conditions: PC-3, 48 h
A549 = test: Cytotoxicity against human A549 cells after 48 hrs by MTT assay; format: functional, cell-based; conditions: A549, 48 h
HeLa = test: Cytotoxicity against human HeLa cells after 48 hrs by MTT assay; format: functional, cell-based
PC-3 [15] = test: Induction of autophagy in human PC3 cells assessed as acidic vesicular organelles formation at 100 to 300 nM after 24 hrs by acridine orange staining based fluorescence microscopy; format: functional, cell-based
PC-3 [16] = test: Induction of autophagy in human PC3 cells assessed as autophagosomes formation at 100 to 300 nM after 24 hrs by acridine orange staining based fluorescence microscopy; format: functional, cell-based
PC-3 [17] = test: Induction of apoptosis in human PC3 cells assessed as nuclear condensation at 100 to 300 nM after 24 hrs by DAPI staining assay; format: functional, cell-based
PC-3 [18] = test: Induction of apoptosis in human PC3 cells assessed as membrane blebbing at 100 to 300 nM after 24 hrs by DAPI staining assay; format: functional, cell-based
PC-3 [19] = test: Induction of autophagy in human PC3 cells at 100 to 300 nM after 24 hrs by MDC staining based fluorescence microscopy; format: functional, cell-based
PC-3 [20] = test: Induction of autophagy in human PC3 cells at 100 to 300 nM after 24 hrs by acridine orange staining based fluorescence microscopy; format: functional
PC-3 [21] = test: Induction of autophagy in human PC3 cells assessed as LC3 protein accumulation in autophagosomes after 24 hrs by fluorescence microscopy; format: functional, cell-based
PC-3 [22] = test: Induction of autophagy in human PC3 cells assessed as increase in punctate EGFP-LC3 pattern in autophagosomes at 100 nM to 300 nM after 24 hrs by fluorescence microscopy; format: functional, cell-based
PC-3 [23] = test: Induction of apoptosis in human PC3 cells assessed as caspase-3 cleavage at 0.1 to 0.3 uM after 24 hrs by Western blotting method; format: functional, cell-based
PC-3 [24] = test: Induction of apoptosis in human PC3 cells assessed as increase in Annexin-V positive cells at 0.1 to 0.3 uM after 24 hrs; format: functional, cell-based
PC-3 [25] = test: Induction of apoptosis in human PC3 cells assessed as caspase-3 cleavage at 300 nM after 24 hrs by Western blotting method; format: functional, cell-based
PC-3 [26] = test: Induction of autophagy in human PC3 cells at 300 nM pre-treated with 5 mM autophagy inhibitor 3-MA for 1 hr before compound exposure for 24 hrs by acridine orange staining based fluorescence microscopy; format: functional, cell-based
PC-3 [27] = test: Induction of autophagy in human PC3 cells at 300 nM pre-treated with 20 uM apoptosis inhibitor z-VAD-fmk for 1 hr before compound exposure for 24 hrs by acridine orange staining based fluorescence microscopy; format: functional, cell-based
PC-3 [28] = test: Induction of apoptosis in human PC3 cells at 300 nM pre-treated with 5 mM autophagy inhibitor 3-MA for 1 hr before compound exposure for 24 hrs by DAPI staining method; format: functional, cell-based
PC-3 [29] = test: Induction of apoptosis in human PC3 cells at 300 nM pre-treated with 20 uM apoptosis inhibitor z-VAD-fmk for 1 hr before compound exposure for 24 hrs by DAPI staining method; format: functional, cell-based
PC-3 [30] = test: Increase in autophagy in human PC3 cells at 300 nM pre-treated with 20 uM apoptosis inhibitor z-VAD-fmk for 1 hr before compound exposure for 24 hrs by acridine orange staining based fluorescence microscopy; format: functional, cell-based
PC-3 [31] = test: Increase in PARP-cleavage in human PC3 cells at 0.3 uM in presence of Beclin-1 siRNA after 24 hrs by immunoblotting method; format: functional, cell-based
PC-3 [32] = test: Induction of autophagy in human PC3 cells over-expressing Bcl-2 at 300 nM pre-treated with 20 uM apoptosis inhibitor z-VAD-fmk for 1 hr before compound exposure for 24 hrs by acridine orange staining based fluorescence microscopy; format: functional, cell-based
PC-3 [33] = test: Induction of apoptosis in human PC3 cells over-expressing Bcl-2 at 300 nM pre-treated with 20 uM apoptosis inhibitor z-VAD-fmk for 1 hr before compound exposure for 24 hrs by DAPI staining method; format: functional, cell-based
PC-3 [34] = test: Induction of autophagy in human PC3 cells over-expressing Bcl-2 at 300 nM pre-treated with 5 mM autophagy inhibitor 3-MA for 1 hr before compound exposure for 24 hrs by acridine orange staining based fluorescence microscopy; format: functional, cell-based
PC-3 [35] = test: Induction of autophagy in human PC3 cells over-expressing DS-Red-Beclin-1 at 300 nM pre-treated with 20 uM apoptosis inhibitor z-VAD-fmk for 1 hr before compound exposure for 24 hrs by acridine orange staining based fluorescence microscopy; format: functional, cell-based
CCRF S-180 [36] = test: Antitumor activity against mouse S180 solid tumor cells implanted in Swiss albino mouse assessed as tumor growth inhibition at 5 mg/kg, ip measured on day 13; format: functional; conditions: CCRF S-180, ip, 312 h, route intraperitoneal, read-out: TGI
CCRF S-180 [37] = test: Antitumor activity against mouse S180 solid tumor cells implanted in Swiss albino mouse assessed as tumor growth inhibition at 10 mg/kg, ip measured on day 13; format: functional; conditions: CCRF S-180, ip, 312 h, route intraperitoneal, read-out: TGI
Mus musculus [38] = test: Toxicity in mouse S180 solid tumor cells implanted Swiss albino mouse assessed as mouse mortality at 5 mg/kg, ip measured on day 13; format: organism-based; parameters: dose 5 mg/kg, route intraperitoneal; conditions: in vivo
Mus musculus [39] = test: Toxicity in mouse S180 solid tumor cells implanted Swiss albino mouse assessed as mouse mortality at 10 mg/kg, ip measured on day 13; format: organism-based; parameters: dose 10 mg/kg, route intraperitoneal; conditions: in vivo
CCRF S-180 [40] = test: Antitumor activity against mouse S180 ascites cells implanted in Swiss albino mouse assessed as tumor growth inhibition at 5 mg/kg, ip measured on day 12; format: functional; conditions: CCRF S-180, ip, 288 h, route intraperitoneal, read-out: TGI
CCRF S-180 [41] = test: Antitumor activity against mouse S180 ascites cells implanted in Swiss albino mouse assessed as tumor growth inhibition at 10 mg/kg, ip measured on day 12; format: functional; conditions: CCRF S-180, ip, 288 h, route intraperitoneal, read-out: TGI
Mus musculus [42] = test: Toxicity in mouse S180 ascites cells implanted Swiss albino mouse assessed as mouse mortality at 5 mg/kg, ip measured on day 13; format: organism-based; parameters: dose 5 mg/kg, route intraperitoneal; conditions: in vivo
Mus musculus [43] = test: Toxicity in mouse S180 ascites cells implanted Swiss albino mouse assessed as mouse mortality at 10 mg/kg, ip measured on day 13; format: organism-based; parameters: dose 10 mg/kg, route intraperitoneal; conditions: in vivo

O=c1[nH]cc(F)c(=O)[nH]1 [FLUOROURACIL]
inhibition in vivo at 22 mg/kg (CCRF S-180 [1]): 52.5%
Activity (Mus musculus [2]): Non-toxic
inhibition in vivo at 22 mg/kg (CCRF S-180 [3]): 96.9%
Activity (Mus musculus [4]): Non-toxic

CC1(C)CCC[C@]2(C)[C@@H](CC[C@@](C)(O)/C=C/c3ccc(F)cc3)[C@](C)(O)CC[C@@H]12
Activity (PC-3 [5]): Active
Activity (PC-3 [6]): Dose-dependent effect
Activity (PC-3 [7]): Dose-dependent effect
Activity (PC-3 [8]): Dose-dependent effect
inhibition (PC-3 [9]): Active
inhibition (PC-3 [10]): Active
Activity [11]: Non-toxic
Activity [12]: Non-toxic
Activity [13]: Dose-dependent effect
IC50 [14]: 0.082 µM
IC50 (A549): 3.1 µM
IC50 (HeLa): 3.46 µM
Activity (PC-3 [15]): Active
Activity (PC-3 [16]): Active
Activity (PC-3 [17]): Active
Activity (PC-3 [18]): Active
Activity (PC-3 [19]): Active
Activity (PC-3 [20]): Active
Activity (PC-3 [21]): Active
Activity (PC-3 [22]): Active
Activity (PC-3 [23]): Active
Activity (PC-3 [24]): Active
Activity (PC-3 [25]): Active
Activity (PC-3 [26]): inactive
Activity (PC-3 [27]): inactive
Activity (PC-3 [28]): inactive
Activity (PC-3 [29]): inactive
Activity (PC-3 [30]): Active
Activity (PC-3 [31]): inactive
Activity (PC-3 [32]): inactive
Activity (PC-3 [33]): inactive
Activity (PC-3 [34]): Active
Activity (PC-3 [35]): Active
inhibition in vivo at 5 mg/kg (CCRF S-180 [36]): 32.5%
inhibition in vivo at 10 mg/kg (CCRF S-180 [37]): 39.8%
Activity (Mus musculus [38]): Non-toxic
Activity (Mus musculus [39]): Non-toxic
inhibition in vivo at 5 mg/kg (CCRF S-180 [40]): 64.7%
inhibition in vivo at 10 mg/kg (CCRF S-180 [41]): 74.9%
Activity (Mus musculus [42]): Non-toxic
Activity (Mus musculus [43]): Non-toxic
